Assay results from patent publication US11473151B2, “Diagnostic and therapeutic methods for cancer” (Genentech, Inc., priority 2017, dated 2022).
“Also recorded” adds a separate entry of the source.

How the values were obtained:
[1] = tested on: UC, NSCLC, TNBC and PDAC patients; experiment: Validation of the 6-gene signature (6TBRS) in atezolizumab clinical trials (IMvigor210, POPLAR); type: in vivo, human; conditions: patients with high expression of the 6-gene signature
Source text: We developed a pan-tissue 6-gene F-TBRS based on the 19-gene Pan-F-TBRS data described above but further prioritizing TGF-β pathway components (TGFB1 and TGFBR2) and targets (CTGF, ADAM19, ACTA2, and COMP). To validate the predictive value of the 6-gene signature, we calculated hazard ratios for prognostic effects (using univariate continuous Cox proportional hazards regression models) and predictive effects, and calculated hazard ratios for predictive effects (using the log-rank test with median cutoff) in atezolizumab clinical trials. […] See, e.g., FIGS. 6B and 6C, which show data from IMvigor210 and the POPLAR study (NCT01903993), respectively.

[2] = tested on: metastatic urothelial carcinoma (mUC) patients; experiment: IMvigor210 single-arm phase II study of atezolizumab: response (RECIST v1.1) and overall survival; type: in vivo, human
Description: Samples for this analysis were collected from IMvigor210, which was a single-arm phase II study investigating atezolizumab (1200 mg every 3 weeks (q3w)) in metastatic urothelial carcinoma (mUC) patients (Clinical Trial Identifier: NCT02108652). The primary endpoint of the trial was to achieve a partial response (PR) rate of over 10% (Response Evaluation Criteria In Solid Tumors (RECIST) v1.1). Patients who had failed previous platinum-based chemotherapy or previously untreated patients who were not eligible for platinum-based chemotherapy were eligible. The primary endpoint was met for both previously treated and untreated populations. It was a requirement for all patients to have tumor tissue taken in the 2 years prior to study entry. The tissues were initially used for PD-L1 analysis (SP142 antibody using the Ventana platform). PD-L1 positivity was defined as more that 5% of cells staining in the immune component of the tumor tissue. Additional tissue was used for exploratory analysis. All patients had measurable disease at baseline facilitating response assessment. RECIST v1.1 was used to assess response to therapy. Cross-sectional imaging was performed every 6 weeks. All patients gave […] for this analysis.
For investigation of the clinical activity of PD-L1 blockade with atezolizumab, 429 patients with advanced mUC were enrolled in a phase 2, single arm clinical trial (IMvigor210; NCT02108652). Objective response rate was assessed per RECIST v1.1 and served as a trial endpoint. […] Assessment of the association of PD-L1 expression on tumor-infiltrating immune cells (IC) on baseline tumors with response (objective response rate) was a co-primary endpoint. PD-L1 IC status was defined by the percentage of PD-L1-positive immune cells in the tumor microenvironment (TME): IC0 (<1%), IC1 (≥1% but <5%) and IC2+(≥5%).

## atezolizumab: anti-PD-L1 antibody (Genentech), CAS Registry Number 1422185-06-5, also known as MPDL3280A
[1]
  response/benefit from monotherapy: lack of benefit; also recorded: lack of response
[1]; listed as atezolimumab
  response/benefit from monotherapy: lack of response
[2]; 1200 mg q3w, previously treated and untreated mUC populations
  primary endpoint: partial response (PR) rate of over 10% (RECIST v1.1): met
[2]; Lund genomically unstable (GU) subtype
  response rate: 47.2%
[2]; high PD-L1 IC scores (IC2/3) relative to IC0/1
  overall survival (OS) benefit: Improved OS benefit
[2]; high TGF-β 2-gene signature (TGFB1, TGFBR2)
  response: lack of response
[2]; high TMB relative to low TMB, median TMB as cutoff
  overall survival (OS) benefit: improved OS benefit
[2]; other Lund subtypes
  response rate: 17.6%
[2]; patients with both high TMB and high PD-L1 IC scores
  overall survival (OS): Improved OS
[2]; tumors with high PD-L1 expression on IC (IC2+) versus other IC levels
  complete response (CR) rate: significantly higher complete response (CR) rate; also recorded: highest CR rate
